Assay results taken from patent US11655246B2, “Aminothiazole compounds as inhibitors of CTPS1” (STEP PHARMA S.A.S., priority 2017, dated 2023).
Where “and” joins values, the source holds several entries; their conditions need not be identical. Equal values may be shown once. Where a name gives a salt, the structure may show the parent alone.

The compounds below were run against T1, human CTPS1 (Homo sapiens, UniProt P17812) (assay: Human CTPS1 enzyme inhibition (ADP-Glo Max assay)). Conditions: Table 17, 25° C., read-out: CTPS1 (Human CTPS1 Enzyme Inhibition data grouped by potency range).
T1 construct: purchased Proteros biostructures GmbH
T1 sequence (P17812 1-591): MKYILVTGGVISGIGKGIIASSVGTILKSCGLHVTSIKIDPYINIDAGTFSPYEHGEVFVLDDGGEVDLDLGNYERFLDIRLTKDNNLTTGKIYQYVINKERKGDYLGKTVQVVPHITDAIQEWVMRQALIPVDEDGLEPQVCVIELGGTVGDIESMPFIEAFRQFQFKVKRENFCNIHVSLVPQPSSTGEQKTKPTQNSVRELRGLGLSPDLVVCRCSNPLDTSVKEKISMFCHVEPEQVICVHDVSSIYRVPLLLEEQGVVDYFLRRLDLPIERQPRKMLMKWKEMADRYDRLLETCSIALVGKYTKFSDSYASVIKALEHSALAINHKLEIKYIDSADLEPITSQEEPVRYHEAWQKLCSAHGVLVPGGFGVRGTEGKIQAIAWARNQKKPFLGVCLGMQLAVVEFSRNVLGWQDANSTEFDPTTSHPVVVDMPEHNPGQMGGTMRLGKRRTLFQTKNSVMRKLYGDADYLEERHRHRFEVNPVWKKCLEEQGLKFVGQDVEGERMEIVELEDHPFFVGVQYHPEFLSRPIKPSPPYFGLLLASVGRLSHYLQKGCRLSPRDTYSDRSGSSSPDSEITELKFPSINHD
Type: biochemical
In short: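 ADP-Glo Max luminescence detection of ATP-to-ADP conversion by the enzyme, in 50 mM Tris, 10 mM MgCl2, 0.01% Tween-20, pH 8.0, with 2 mM L-cysteine added fresh. Enzyme preincubated with compound 10 minutes at 25° C. Percentage inhibition calculated per compound concentration.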

Compound	IC50
CC(C)(C(=O)Nc1ccc(-c2cccnc2)c(Cl)c1)c1csc(NS(=O)(=O)C2CC2)n1 [T153]	100 to 1000 nM
CC(C)(C(=O)Nc1ccc(-c2cccnc2)cc1Cl)c1csc(NS(=O)(=O)C2CC2)n1 [T41]	100 to 1000 nM
CCC(CC)(C(=O)Nc1ccc(-c2cncc(Cl)n2)cc1)c1csc(NS(=O)(=O)C2CC2)n1 [T160]	< 100 nM
CC(C)C(C(=O)Nc1ccc(-c2cccnc2)cc1)c1csc(NS(=O)(=O)C2CC2)n1 (racemic) [T12, 2-(2-(cyclopropanesulfonamido)thiazol-4-yl)-3-methyl-N-(4-(pyridin-3-yl)phenyl)butanamide]	100 to 1000 nM
CC(C)C(C(=O)Nc1ccc(-c2cccnc2)cc1)c1csc(NS(=O)(=O)C2CC2)n1 (single isomer, unassigned) [T14, 2-(2-(cyclopropanesulfonamido)thiazol-4-yl)-3-methyl-N-(4-(pyridin-3-yl)phenyl)butanamide.HCl]	100 to 1000 nM
CCC(C(=O)Nc1ccc(-c2cncc(F)c2)cc1)c1csc(NS(=O)(=O)C2CC2)n1 (single isomer, unassigned) [T72]	< 100 nM
CCC(C(=O)Nc1ccc(-c2cncc(OCC(F)(F)F)c2)cn1)c1csc(NS(=O)(=O)C2CC2)n1 (stereo not drawn) [T185]	< 100 nM and 100 to 1000 nM
CCC(C(=O)Nc1ccc(-c2cccnc2)cc1)c1csc(NS(=O)(=O)C2CC2)n1 (racemic) [T5, 2-(2-(cyclopropanesulfonamido)thiazol-4-yl)-N-(4-(pyridin-3-yl)phenyl)butanamide]	< 100 nM
CCC(C(=O)Nc1ccc(-c2ccnnc2)cc1)c1csc(NS(=O)(=O)C2CC2)n1 (stereo not drawn) [T69]	1000 to 10000 nM
CCC(CC)(C(=O)Nc1ccc(-c2cnccn2)cn1)c1csc(NS(=O)(=O)C2CC2)n1 [T3, 2-(2-(cyclopropanesulfonamido)thiazol-4-yl)-2-ethyl-N-(5-(pyrazin-2-yl)pyridin-2-yl)butanamide]	100 to 1000 nM
Cc1sc(NS(=O)(=O)C2CC2)nc1C(C)(C)C(=O)Nc1ccc(-c2cncc(C(F)(F)F)n2)cc1 [T17, 2-(2-(cyclopropanesulfonamido)-5-methylthiazol-4-yl)-2-methyl-N-(4-(6-(trifluoromethyl)pyrazin-2-yl)phenyl)propanamide]	100 to 1000 nM
CN(C)C(=O)c1cncc(-c2ccc(NC(=O)C(C)(C)c3csc(NS(=O)(=O)C4CC4)n3)cc2)n1 [T19, 6-(4-(2-(2-(cyclopropanesulfonamido)thiazol-4-yl)-2-methylpropanamido)phenyl)-N,N-dimethylpyrazine-2-carboxamide]	100 to 1000 nM
CS(=O)(=O)Nc1nc(CC(=O)Nc2ccc(-c3ccccc3)cc2)cs1 [T1, N-([1,1′-biphenyl]-4-yl)-2-(2-(methylsulfonamido)thiazol-4-yl)acetamide]	1000 to 10000 nM

The next lines start with the values.

IC50	Compound
< 100 nM	COc1cncc(-c2ccc(NC(=O)C(OC)c3csc(NS(=O)(=O)C4CC4)n3)cc2)n1 (single isomer, unassigned) [T107]
100 to 1000 nM	CC(C)C(C(=O)Nc1ccc(-c2cnccn2)cc1)c1csc(NS(=O)(=O)C2CC2)n1 (stereo not drawn) [T74]
< 100 nM	CCC(C(=O)Nc1ccc(-c2cncc(OC(C)C)n2)cc1)c1csc(NS(=O)(=O)C2CC2)n1 (stereo not drawn) [T76]
< 100 nM	CCC(C(=O)Nc1ccc(-c2cncc(OCC(F)(F)F)n2)cc1)c1csc(NS(=O)(=O)C2CC2)n1 (single isomer, unassigned) [T223]
< 100 nM	CCC(C(=O)Nc1ccc(-c2cncc(Cl)c2)cc1)c1csc(NS(=O)(=O)C2CC2)n1 (racemic) [T8, N-(4-(5-chloropyridin-3-yl)phenyl)-2-(2-(cyclopropanesulfonamido)thiazol-4-yl)butanamide]
< 100 nM	CCC(C(=O)Nc1ccc(-c2cncc(C(F)(F)F)n2)cc1)c1csc(NS(=O)(=O)C2CC2)n1 (stereo not drawn) [T73]
< 100 nM	COC(C(=O)Nc1ccc(-c2cccnc2)cc1)c1csc(NS(=O)(=O)C2CC2)n1 (stereo not drawn) [T219]
< 100 nM	CCC(C(=O)Nc1ccc(-c2cncc(C3CC3)n2)cc1)c1csc(NS(=O)(=O)C2CC2)n1 (stereo not drawn) [T291]
< 100 nM	CCOc1cncc(-c2ccc(NC(=O)C(CC)c3csc(NS(=O)(=O)C4CC4)n3)cc2)n1 (single isomer, unassigned) [T204]

Same assay, conditions: Table 18, additional potency data, 25° C., read-out: CTPS1 (Human CTPS1 Enzyme Inhibition data grouped by potency range)

Compound	IC50 [nM]
NC(C(=O)Nc1ccc(-c2cncc(C(F)(F)F)n2)cc1F)c1csc(NS(=O)(=O)C2CC2)n1 (stereo not drawn) [T418, 2-Amino-2-(2-(cyclopropanesulfonamido)thiazol-4-yl)-N-(2-fluoro-4-(6-(trifluoromethyl)pyrazin-2-yl)phenyl)acetamide]	100 to 1000
CCOc1cncc(-c2ccc(NC(=O)C(C)(C)c3csc(NS(C)(=O)=O)n3)nc2)n1 [T390, N-(5-(6-ethoxypyrazin-2-yl)pyridin-2-yl)-2-methyl-2-(2-(methylsulfonamido)thiazol-4-yl)propanamide]	< 100
CCc1cncc(-c2ccc(NC(=O)C(CC)c3csc(NS(=O)(=O)C4CC4)n3)c(F)c2)n1 (stereo not drawn) [T405, 2-(2-(cyclopropanesulfonamido)thiazol-4-yl)-N-(4-(6-ethylpyrazin-2-yl)-2-fluorophenyl)butanamide]	< 100
CC(C)(C(=O)Nc1ccc(-c2cncc(C(F)(F)F)c2)cn1)c1csc(NS(C)(=O)=O)n1 [T389, 2-methyl-2-(2-(methylsulfonamido)thiazol-4-yl)-N-(5′-(trifluoromethyl)-[3,3′-bipyridin]-6-yl)propanamide]	100 to 1000
CCS(=O)(=O)Nc1nc(C(C)(C)C(=O)Nc2ccc(-c3cncc(OC(C)C)n3)cc2)cs1 [T388, 2-(2-(ethylsulfonamido)thiazol-4-yl)-N-(4-(6-isopropoxypyrazin-2-yl)phenyl)-2-methylpropanamide]	< 100
CCC(C(=O)Nc1ccc(-c2cncc(C(C)C)n2)cn1)c1csc(NS(=O)(=O)C2CC2)n1 (stereo not drawn) [T401, 2-(2-(cyclopropanesulfonamido)thiazol-4-yl)-N-(5-(6-isopropylpyrazin-2-yl)pyridin-2-yl)butanamide]	100 to 1000
CCS(=O)(=O)Nc1nc(C(C)(C)C(=O)Nc2ccc(-c3cncc(C#N)c3)cc2)cs1 [T384, N-(4-(5-cyanopyridin-3-yl)phenyl)-2-(2-(ethylsulfonamido)thiazol-4-yl)-2-methylpropanamide]	100 to 1000
COC(C)(C)c1cncc(-c2ccc(NC(=O)C(C)(C)c3csc(NS(=O)(=O)C4CC4)n3)nc2)n1 [T339, 2-(2-(cyclopropanesulfonamido)thiazol-4-yl)-N-(5-(6-(2-methoxypropan-2-yl)pyrazin-2-yl)pyridin-2-yl)-2-methylpropanamide]	1000 to 10000
CCOc1cncc(-c2ccc(NC(=O)C(C)(C)c3csc(NS(=O)(=O)C4CC4)n3)cc2C)n1 [T371, 2-(2-(cyclopropanesulfonamido)thiazol-4-yl)-N-(4-(6-ethoxypyrazin-2-yl)-3-methylphenyl)-2-methylpropanamide]	< 100
CCOc1cncc(-c2ccc(NC(=O)C(CCOC)c3csc(NS(=O)(=O)C4CC4)n3)nc2)n1 (stereo not drawn) [T436]	< 100
CCOc1cncc(-c2ccc(NC(=O)C(C)(C)c3nc(NS(=O)(=O)C4CC4)sc3C)c(F)c2)n1 [T358, 2-(2-(cyclopropanesulfonamido)-5-methylthiazol-4-yl)-N-(4-(6-ethoxypyrazin-2-yl)-2-fluorophenyl)-2-methylpropanamide]	< 100
CC(C)(C(=O)Nc1ccc(-c2cncc(C#N)n2)cc1F)c1csc(NS(=O)(=O)C2CC2)n1 [T355, N-(4-(6-cyanopyrazin-2-yl)-2-fluorophenyl)-2-(2-(cyclopropanesulfonamido)thiazol-4-yl)-2-methylpropanamide]	1000 to 10000
COCCC(C(=O)Nc1ccc(-c2cncc(C(F)(F)F)n2)cc1F)c1csc(NS(=O)(=O)C2CC2)n1 (stereo not drawn) [T399, 2-(2-(cyclopropanesulfonamido)thiazol-4-yl)-N-(2-fluoro-4-(6-(trifluoromethyl)pyrazin-2-yl)phenyl)-4-methoxybutanamide]	< 100

Other lines, results leading:

IC50 [nM]	Compound
< 100	CCOc1cncc(-c2cc(F)c(NC(=O)C(OC)c3csc(NS(=O)(=O)C4CC4)n3)c(F)c2)n1 (stereo not drawn) [T453]
< 100	CCOc1cncc(-c2ccc(NC(=O)C(OC)c3csc(NS(=O)(=O)C4CC4)n3)c(C(F)(F)F)c2)n1 (stereo not drawn) [T449]
< 100	CCOc1cncc(-c2ccc(NC(=O)C(OC)c3csc(NS(=O)(=O)C4CC4)n3)c(C#N)c2)n1 (stereo not drawn) [T451]
< 100	CCOc1cncc(-c2ccc(NC(=O)C(OC)c3csc(NS(=O)(=O)C4CC4)n3)cc2)n1 (single isomer, unassigned) [T330, 2-(2-(cyclopropanesulfonamido)thiazol-4-yl)-N-(4-(6-ethoxypyrazin-2-yl)phenyl)-2-methoxyacetamide]
< 100	COC(C(=O)Nc1ccc(-c2cncc(C(F)(F)F)n2)cc1F)c1csc(NS(=O)(=O)C2CC2)n1 (single isomer, unassigned) [T459]
< 100	COC(C(=O)Nc1ccc(-c2cncc(OC(C)C)n2)cc1)c1csc(NS(=O)(=O)C2CC2)n1 (stereo not drawn) [T411, 2-(2-(cyclopropanesulfonamido)thiazol-4-yl)-N-(4-(6-isopropoxypyrazin-2-yl)phenyl)-2-methoxyacetamide]
< 100	CCOc1cncc(-c2ccc(NC(=O)C(OC)c3csc(NS(=O)(=O)C4CC4)n3)c(Cl)c2)n1 (stereo not drawn) [T450]
